From patent US8192962B2, “Processes for detecting toxic substances” (Daikin Industries, Ltd., priority 2001, dated 2012)

Test system: DNA repair protein genes
Assay: DNA chip mRNA expression in yeast, DNA repair protein genes (Table 3)
Assay type: cell-based, Saccharomyces cerevisiae S288C
Settings: incubated two hours, concentrations as in the 1st table
Procedure, shortened: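 In this screen, yeast in logarithmic growth are challenged for two hours with a toxic substance at a non-lethal inhibitory concentration. Their mRNA, converted to Cy3- or Cy5-labeled cDNA, hybridizes at 65° C. to a chip spanning every yeast gene, and expression is expressed as a ratio to untreated cells.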

## N#Cc1c(Cl)c(Cl)c(Cl)c(C#N)c1Cl [(9), 2,4,5,6-tetrachloro-1,3-benzenedicarbonitrile]
Yeast gene YAL015C
  The level of expressed mRNA in the presence of chemical substance/The level of expressed mRNA in the absence of chemical substance: 4.0
Yeast gene YAR007C
  The level of expressed mRNA in the presence of chemical substance/The level of expressed mRNA in the absence of chemical substance: 4.1
Yeast gene YBL019W
  The level of expressed mRNA in the presence of chemical substance/The level of expressed mRNA in the absence of chemical substance: 2.6
Yeast gene YBR073W
  The level of expressed mRNA in the presence of chemical substance/The level of expressed mRNA in the absence of chemical substance: 2.5
Yeast gene YBR272C
  The level of expressed mRNA in the presence of chemical substance/The level of expressed mRNA in the absence of chemical substance: 1.7
Yeast gene YCR014C
  The level of expressed mRNA in the presence of chemical substance/The level of expressed mRNA in the absence of chemical substance: 2.4
Yeast gene YDL017W
  The level of expressed mRNA in the presence of chemical substance/The level of expressed mRNA in the absence of chemical substance: 0.8
Yeast gene YDL059C
  The level of expressed mRNA in the presence of chemical substance/The level of expressed mRNA in the absence of chemical substance: 10.5
Yeast gene YDL200C
  The level of expressed mRNA in the presence of chemical substance/The level of expressed mRNA in the absence of chemical substance: 2.4
Yeast gene YDR054C
  The level of expressed mRNA in the presence of chemical substance/The level of expressed mRNA in the absence of chemical substance: 2.9
Yeast gene YDR369C
  The level of expressed mRNA in the presence of chemical substance/The level of expressed mRNA in the absence of chemical substance: 2.4
Yeast gene YEL019C
  The level of expressed mRNA in the presence of chemical substance/The level of expressed mRNA in the absence of chemical substance: 0.7
Yeast gene YEL037C
  The level of expressed mRNA in the presence of chemical substance/The level of expressed mRNA in the absence of chemical substance: 2.6
Yeast gene YER162C
  The level of expressed mRNA in the presence of chemical substance/The level of expressed mRNA in the absence of chemical substance: 2.8
Yeast gene YFL014W
  The level of expressed mRNA in the presence of chemical substance/The level of expressed mRNA in the absence of chemical substance: 13.1
Yeast gene YGL058W
  The level of expressed mRNA in the presence of chemical substance/The level of expressed mRNA in the absence of chemical substance: 3.7
Yeast gene YGL091C
  The level of expressed mRNA in the presence of chemical substance/The level of expressed mRNA in the absence of chemical substance: 10.8
Yeast gene YGL127C
  The level of expressed mRNA in the presence of chemical substance/The level of expressed mRNA in the absence of chemical substance: 1.2
Yeast gene YGL163C
  The level of expressed mRNA in the presence of chemical substance/The level of expressed mRNA in the absence of chemical substance: 5.8
Yeast gene YGL249W
  The level of expressed mRNA in the presence of chemical substance/The level of expressed mRNA in the absence of chemical substance: 0.3
Yeast gene YGR180C
  The level of expressed mRNA in the presence of chemical substance/The level of expressed mRNA in the absence of chemical substance: 1.4
Yeast gene YGR231C
  The level of expressed mRNA in the presence of chemical substance/The level of expressed mRNA in the absence of chemical substance: 3.2
Yeast gene YGR258C
  The level of expressed mRNA in the presence of chemical substance/The level of expressed mRNA in the absence of chemical substance: 2.5
Yeast gene YHR164C
  The level of expressed mRNA in the presence of chemical substance/The level of expressed mRNA in the absence of chemical substance: 1.3
Yeast gene YIL036W
  The level of expressed mRNA in the presence of chemical substance/The level of expressed mRNA in the absence of chemical substance: 3.6
Yeast gene YIL072W
  The level of expressed mRNA in the presence of chemical substance/The level of expressed mRNA in the absence of chemical substance: 2.9
Yeast gene YIL143C
  The level of expressed mRNA in the presence of chemical substance/The level of expressed mRNA in the absence of chemical substance: 7.1
Yeast gene YIL153W
  The level of expressed mRNA in the presence of chemical substance/The level of expressed mRNA in the absence of chemical substance: 4.3
Yeast gene YIR002C
  The level of expressed mRNA in the presence of chemical substance/The level of expressed mRNA in the absence of chemical substance: 1.7
Yeast gene YJL026W
  The level of expressed mRNA in the presence of chemical substance/The level of expressed mRNA in the absence of chemical substance: 1.0
Yeast gene YJR046W
  The level of expressed mRNA in the presence of chemical substance/The level of expressed mRNA in the absence of chemical substance: 6.0
Yeast gene YJR052W
  The level of expressed mRNA in the presence of chemical substance/The level of expressed mRNA in the absence of chemical substance: 4.5
Yeast gene YKL145W
  The level of expressed mRNA in the presence of chemical substance/The level of expressed mRNA in the absence of chemical substance: 3.5
Yeast gene YLR103C
  The level of expressed mRNA in the presence of chemical substance/The level of expressed mRNA in the absence of chemical substance: 0.8
Yeast gene YLR233C
  The level of expressed mRNA in the presence of chemical substance/The level of expressed mRNA in the absence of chemical substance: 0.6
Yeast gene YLR288C
  The level of expressed mRNA in the presence of chemical substance/The level of expressed mRNA in the absence of chemical substance: 0.8
Yeast gene YML032C
  The level of expressed mRNA in the presence of chemical substance/The level of expressed mRNA in the absence of chemical substance: 3.0
Yeast gene YML058W
  The level of expressed mRNA in the presence of chemical substance/The level of expressed mRNA in the absence of chemical substance: 1.1
Yeast gene YMR035W
  The level of expressed mRNA in the presence of chemical substance/The level of expressed mRNA in the absence of chemical substance: 1.7
Yeast gene YMR072W
  The level of expressed mRNA in the presence of chemical substance/The level of expressed mRNA in the absence of chemical substance: 3.0
Yeast gene YMR096W
  The level of expressed mRNA in the presence of chemical substance/The level of expressed mRNA in the absence of chemical substance: 3.3
Yeast gene YMR284W
  The level of expressed mRNA in the presence of chemical substance/The level of expressed mRNA in the absence of chemical substance: 1.6
Yeast gene YNL213C
  The level of expressed mRNA in the presence of chemical substance/The level of expressed mRNA in the absence of chemical substance: 3.0
Yeast gene YNL250W
  The level of expressed mRNA in the presence of chemical substance/The level of expressed mRNA in the absence of chemical substance: 4.2
Yeast gene YNL261W
  The level of expressed mRNA in the presence of chemical substance/The level of expressed mRNA in the absence of chemical substance: 2.3
Yeast gene YNL312W
  The level of expressed mRNA in the presence of chemical substance/The level of expressed mRNA in the absence of chemical substance: 3.7
Yeast gene YOL043C
  The level of expressed mRNA in the presence of chemical substance/The level of expressed mRNA in the absence of chemical substance: 1.0
Yeast gene YOR005C
  The level of expressed mRNA in the presence of chemical substance/The level of expressed mRNA in the absence of chemical substance: 2.4
Yeast gene YOR386W
  The level of expressed mRNA in the presence of chemical substance/The level of expressed mRNA in the absence of chemical substance: 4.1
Yeast gene YPL022W
  The level of expressed mRNA in the presence of chemical substance/The level of expressed mRNA in the absence of chemical substance: 2.1
Yeast gene YPL164C
  The level of expressed mRNA in the presence of chemical substance/The level of expressed mRNA in the absence of chemical substance: 2.1
Yeast gene YPL194W
  The level of expressed mRNA in the presence of chemical substance/The level of expressed mRNA in the absence of chemical substance: 9.6
Yeast gene YPR025C
  The level of expressed mRNA in the presence of chemical substance/The level of expressed mRNA in the absence of chemical substance: 1.9
